# Data published in patent US5523305A, “Tachykinin receptor antagonists, isoquinolones and their production” (Takeda Chemical Industries, Ltd., priority 1992, dated 1996).
# Target: T1, substance P receptor from rat forebrain (Rattus norvegicus, UniProt P14600)
# T1 construct: The receptor was prepared from the brain of Wistar rats (male, 8 weeks old, Charles-River); from tissue; host or cells: forebrain membranes of male Wistar rats
# Assay: Radioligand receptor binding inhibitory assay using receptor from rat forebrain (125I-BHSP)
# Parameters: species or system rat (Wistar)
# Settings: 25° C., 30 minutes, pH 7.4
# Experimental: (1) Radioligand receptor binding inhibitory assay using receptor from rat forebrain The method of R. Qirion and […] (Neuropeptide 4, 325 (1984)) was modified and used. The receptor was prepared from the brain of Wistar rats (male, 8 weeks old, Charles-River). The rat was sacrificed by decapitation and the forebrain was isolated. The forebrain was homogenized in 30 ml/rat of 150 mM Tris-HCl buffer (pH 7.4) containing 120 mM sodium chloride and 5 mM potassium chloride using a Polytron homogenizer (Kinematika, Germany) and centrifuged at 40,000×G for 20 minutes. The pellet was suspended in 30 ml of 50 mM Tris-HCl buffer (pH 7.4) containing 300 mM potassium chloride and 10 mM ethylenediaminetetracetic acid and stirred gently with ice-cooling for 30 minutes. This suspension was centrifuged at 40,000×G for 20 minutes and the pellet was washed with 30 ml of 50 mM Tris-HCl buffer (pH 7.4). The receptor specimen thus obtained was preserved frozen (-80° C.). The above specimen was suspended in a reaction buffer (50 mM Tris-HCl buffer (pH 7.4), 0.02% bovine serum albumin, 1 mM phenylmethylsulfonyl fluoride, 2 μg/ml chymostatin, 40 μg/ml bacitracin, 3 mM manganese chloride) at a protein concentration of 1.5 mg/ml and a 100 μl portion of the suspension was used in the reaction. […] The amount of nonspecific binding was determined by adding substance P at a final concentration of 2×10^-6 M. After the reaction, using a cell harvester (290PHD, Cambridge Technology, Inc., England), rapid filtration was carried out through a glass filter (GF/B, Whatman, U.S.A.) to stop the reaction. After washings three times with 250 μl of 50 mM Tris-HCl buffer (pH 7.4) containing 0.02% bovine serum albumin, the radioactivity remaining on the filter was measured with a gamma counter. Before use, the filter was immersed in 0.1% polyethyleneimine for 24 hours and air-dried.
# T1 sequence (P14600 whole entry): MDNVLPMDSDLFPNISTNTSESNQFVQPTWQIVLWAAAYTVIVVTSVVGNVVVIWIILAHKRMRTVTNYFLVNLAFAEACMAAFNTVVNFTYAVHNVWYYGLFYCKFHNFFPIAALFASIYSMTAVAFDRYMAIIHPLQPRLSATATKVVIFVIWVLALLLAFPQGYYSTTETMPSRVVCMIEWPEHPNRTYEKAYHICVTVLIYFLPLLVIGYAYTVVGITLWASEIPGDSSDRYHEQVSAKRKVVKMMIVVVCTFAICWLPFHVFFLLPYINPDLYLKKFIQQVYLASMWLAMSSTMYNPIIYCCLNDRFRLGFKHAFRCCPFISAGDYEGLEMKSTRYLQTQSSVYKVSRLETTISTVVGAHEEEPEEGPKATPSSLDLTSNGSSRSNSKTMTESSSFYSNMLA
row,IC50 [nM],SMILES
1,19,"Cc1cc2c(-c3ccccc3)c(NC(=O)NCc3ccccc3)n(C)c(=O)c2cc1C [Example 2, N-Benzyl-N'-(1,2-dihydro-2,6,7-trimethyl-1-oxo-4-phenylisoquinolin-3-yl)ure]"
2,64,"Cc1cc2c(-c3ccccc3)c(NC(=O)NCc3ccco3)n(C)c(=O)c2cc1C [Example 12, N-(2-Furfuryl)-N'-(1,2-dihydro-2,6,7-trimethyl-1-oxo-4-phenylisoquinolin-3-yl)urea]"
3,42,"Cc1cc2c(-c3ccccc3)c(NC(=O)NCc3ccccn3)n(C)c(=O)c2cc1C [Example 13, N-(1,2-Dihydro-2,6,7-trimethyl-1-oxo-4-phenylisoquinolin-3-yl)-N'-(2-pyridinemethyl)urea]"
4,56,"Cc1cc2c(-c3ccccc3)c(NC(=O)NCc3cccs3)n(C)c(=O)c2cc1C [Example 14, N-(1,2-Dihydro-2,6,7-trimethyl-1-oxo-4-Phenylisoquinolin-3-yl)-N'-(2-thiophenemethyl)urea]"
5,76,"Cc1cc2c(-c3ccccc3)c(NC(=O)NCC3CCCCC3)n(C)c(=O)c2cc1C [Example 15, N-Cyclohexylmethyl-N'-(1,2-dihydro-2,6,7-trimethyl-1-oxo-4-phenylisoquinolin-3-yl)urea]"
6,11,"Cc1ccc(CNC(=O)Nc2c(-c3ccccc3)c3cc(C)c(C)cc3c(=O)n2C)cc1 [Example 16, N-(1,2-Dihydro-2,6,7-trimethyl-1-oxo-4-phenylisoquinolin-3-yl)-N'-(4-methylbenzyl)urea]"
7,14,"Cc1cc2c(-c3ccccc3)c(NC(=O)NCc3ccccc3C)n(C)c(=O)c2cc1C [Example 18, N-(1,2-Dihydro-2,6,7-trimethyl-1-oxo-4-phenylisoquinolin-3-yl)-N'-(2-methylbenzyl)urea]"
8,32,"CCn1c(NC(=O)NCc2ccccc2)c(-c2ccccc2)c2cc(C)c(C)cc2c1=O [Example 19, N-Benzyl-N'-(2-ethyl-1,2-dihydro-6,7-dimethyl-1-oxo-4-phenylisoquinolin-3-yl)urea]"
9,100,"COc1ccccc1-c1c(NC(=O)NCc2ccccc2)n(C)c(=O)c2ccccc12 [Example 24, N-Benzyl-N'-[1,2-dihydro-4-(2-methoxyphenyl)-2-methyl-1-oxoisoquinolin-3-yl]urea]"

# Same assay, conditions: read-out: concentration necessary to cause 50% inhibition [IC50], 25° C., 30 minutes, pH 7.4
row,IC50 [nM],SMILES
1,18,"Cc1cccc(CNC(=O)Nc2c(-c3ccccc3)c3cc(C)c(C)cc3c(=O)n2C)c1 [Example 17, N-(1,2-Dihydro-2,6,7-trimethyl-1-oxo-4-phenylisoquinolin-3-yl)-N'-(3-methylbenzyl)urea]"

# Target: T2, substance P receptor from human lymphoblast cells (IM-9) (Homo sapiens, UniProt P25103)
# T2 construct: The receptor was prepared from human lymphoblast cells (IM-9); endogenous in cells; host or cells: IM-9 human lymphoblast cells
# Assay: Radioligand receptor binding inhibitory assay using receptor from human lymphoblast cells (IM-9) (125I-BHSP)
# Settings: human lymphoblast IM-9 cell receptor, 25° C., 30 minutes, pH 7.4
# Experimental: (2) Radioligand receptor binding inhibitory assay using receptor from human lymphoblast cells (IM-9)
# The method of A. Margaret et al. [Molecular Pharmacology 42, 458 (1992)] was modified and used. The receptor was prepared from human lymphoblast cells (IM-9). IM-9 cells were grown in 175 cm^2 tissue culture flasks (100 ml×10) at a density approximately 2×10^5 /ml of RPMI 1640 with L-glutamine, 10% (V/V) heat inactivated fetal calf serum, penicillin (100 u/ml), and streptomycin (100 μg/ml) at 37° C. in 5%CO2 /95% air for 3 days. IM-9 cells were obtained by centrifugation at 500×g for 5 minutes at 5° C. The pellet obtained was washed once with phosphate buffer (Flow Laboratories, CAT. No. 28-103-05), homogenized using Polytron homogenizer(Kinematika, Germany) in 30 ml of 50 mM Tris-HCl buffer containing 120 mM NaCl, 5 mM KCl, 2 μg/ml phenylmethyl sufonyl fluoride, and 1 mM ethylenediamine tetra-acetic acid, and then centrifuged at 40,000×g for 20 minutes. The residue was washed twice with 30 ml of buffer described above, and preserved frozen (-80° C.).
# The above specimen was suspended in a reaction buffer (50 mM Tris-HCl buffer (pH 7.4), 0.02% bovine serum albumin, 1 mM phenylmethylsulfonyl fluoride, 2 μg/ml chymostatin, 40 μg/ml bacitracin, 3 mM manganese chloride) at a protein concentration of 1.5 mg/ml and a 100 μl portion of the suspension was used in the reaction. After addition of the sample and 125I-BHSP (0.46 KBq), the reaction was conducted in 0.2 ml of reaction buffer at 25° C. for 30 minutes. The amount of nonspecific binding was determined by adding substance P at a final concentration of 2×10^-6 M. After the reaction, using a cell harvester (290PHD, Cambridge Technology, Inc., England), rapid filtration was carried out through a glass filter (GF/B, Whatman, U.S.A.) to stop the reaction. After washing three times with 250 μl of […] buffer (pH 7.4) containing 0.02% bovine serum albumin, the radioactivity remaining on the filter was measured with a gamma counter. Before use, the filter was immersed in 0.1% polyethyleneimine for 24 hours and air-dried.
# T2 sequence (P25103 whole entry): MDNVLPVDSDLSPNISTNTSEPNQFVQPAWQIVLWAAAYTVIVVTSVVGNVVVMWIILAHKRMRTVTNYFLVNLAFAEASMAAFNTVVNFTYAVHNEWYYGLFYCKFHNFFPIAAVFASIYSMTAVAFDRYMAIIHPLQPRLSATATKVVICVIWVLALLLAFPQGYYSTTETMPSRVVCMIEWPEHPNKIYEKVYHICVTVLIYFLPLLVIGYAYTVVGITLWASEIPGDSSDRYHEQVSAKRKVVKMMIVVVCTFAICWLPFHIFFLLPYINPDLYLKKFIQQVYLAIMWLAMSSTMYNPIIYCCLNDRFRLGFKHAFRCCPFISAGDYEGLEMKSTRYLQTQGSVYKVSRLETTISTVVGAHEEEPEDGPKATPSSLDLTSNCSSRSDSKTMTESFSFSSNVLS
row,IC50 [nM],SMILES
1,76,"Cc1cc2c(-c3ccccc3)c(NC(=O)NCc3ccccc3Cl)n(C)c(=O)c2cc1C [Example 42, N-(2-Chlorobenzyl)-N'-(1,2-dihydro-2,6,7-trimethyl-1-oxo-4-phenylisoquinolin-3-yl)urea]"

# Same assay, conditions: read-out: concentration necessary to cause 50% inhibition [IC50], human lymphoblast IM-9 cell receptor, 25° C., 30 minutes, pH 7.4
row,IC50 [nM],SMILES
1,16,"Cc1cc2c(-c3ccccc3)c(NC(=O)N(C)Cc3ccccc3)n(C)c(=O)c2cc1C [Example 1, N-Benzyl-N'-(1,2-dihydro-2,6,7-trimethyl-1-oxo-4-phenylisoquinolin-3-yl)-N-methylurea]"
2,23,"COc1ccccc1CN(C)C(=O)Nc1c(-c2ccccc2)c2cc(C)c(C)cc2c(=O)n1C [Example 3, N-(1,2-Dihydro-2,6,7-trimethyl-1-oxo-4-phenylisoquinolin-3-yl)-N'-(2-methoxybenzyl)-N'-methylurea]"
3,4.2,Cc1cc2c(-c3ccccc3)c(NC(=O)N(C)Cc3ccccc3Cl)n(C)c(=O)c2cc1C [Example 52]
4,66,"CCN(Cc1ccccc1)C(=O)Nc1c(-c2ccccc2)c2cc(C)c(C)cc2c(=O)n1C [Example 53, N-Benzyl-N-ethyl-N'-(1,2-dihydro-2,6,7-trimethyl-1-oxo-4-phenylisoquinolin-3-yl)urea]"
